Results as given in patent US10722530B2, “Methods of diagnosing and treating cancer” (CASE WESTERN RESERVE UNIVERSITY, priority 2016, dated 2020).

What was measured:
H1299 = assay: Clonogenic survival assay; type: cell-based; conditions: Homo sapiens, NCI-H1299; H1299 (p53 null), 24 h treatment, colonies after at least 10 days
Method: (§5) Cancer cells (200-300 cells/well) were seeded in 6-well culture dishes and allowed to adhere overnight. For 5-FdU, cells were treated for 24 h, then gently washed with PBS, and incubated with fresh media for at least 10 days to allow individual colonies to form. […] After 10-18 days, the plates were stained with methylene blue. Colonies containing ≥50 cells were counted. The percentage of survival was determined relative to untreated control averaged over 3 independent experiments.

[1] = test system: HEC1A endometrial cancer cells; assay: Colony survival assay, shSCR and shUDG cells; type: cell-based, human
Method: UDG knockdown was performed via shRNA transduction with validated clone from Sigma-Aldrich. The ID of UDG shRNA clone is NM_003362.2-656s21c1. A non-targeted scramble control shRNA clone (Sigma-Aldrich) was also used. Transfection of shRNA clones was performed according to manufacturer's specifications from Lipofectamine 2000 (Invitrogen). Lentiviral particles were produced via HEK293 cells, and targeted cells were infected and selected with puromycin. The stable UDG knockdown levels were verified for q-PCR and western blot analysis.
DLD1 (200 cells/well) or HEC1A (300 cells/well) cells were plated in 6-well culture dishes and allowed to adhere for 16 h. Cells were treated with drug for 24 h, gently washed twice with 1×PBS, and incubated with fresh media for at least 10 days to allow individual colonies to form. Colonies were stained with methylene blue, and only colonies containing ≥50 cells were counted. The percentage of survival was determined relative to untreated control averaged over 3 independent experiments.

DLD1 cells [2] = assay: AP site detection assay (genomic uracil and 5-FU); type: cell-based, human; conditions: for levels of AP sites: 0-200 nM 5-FdU 48 h
Method: The amount of cellular AP sites was assessed as we previously described by using a NIR cyanine-based AP site probe. […] After the reaction, AP site probe with a final concentration of 25 μM was added and incubated at 37° C. for 1 h. Following incubation, extracted DNA was precipitated, and the supernatant was discarded. DNA pellets were resuspended in H2O, and DNA concentrations were measured and adjusted. The fluorescence intensities of each sample were analyzed with 760 nm excitation and emission scan of 790-847 nm.

HCT116 p53 KO cells = assay: Flow cytometric assay of apoptosis (Annexin V/PI); type: cell-based, human; conditions: 25 nM 5-FdU 24 h
Method: (§1) Cells were seeded in 6-well tissue culture plates (1.5×10^5 cells/well) and allowed to attach overnight. Cells were then treated with 25 nM 5-FdU for 24 h, washed twice with PBS, replenished with drug-free medium at 48, 72, and 96 h. After recovery, the cells floating in the medium were collected. The adherent cells were trypsinized, pelleted, washed in ice-cold PBS, and resuspended in 1× Binding Buffer according to the manufacturer's instructions (FITC Annexin V Apoptosis Detection Kit, BD Pharmingen). Cells were then stained with FITC Annexin V and PI for 15 minutes at room temperature in the dark. Annexin V-FITC detects translocation of […] from the inner to the out cell membrane during early apoptosis, and PI can enter the cells in late apoptosis or necrosis. Untreated cells were used as control for the double staining. The cells were analyzed immediately after staining using a Attune NXT instrument and FlowJo software. For each measurement, at least 20,000 cells were counted.

HCT116 p53 WT cells [3] = assay: Flow cytometric assay of apoptosis (Annexin V/PI); type: cell-based, human; conditions: 25 nM 5-FdU 24 h, at 48 h, both UDG expressing and UDG depleted cells
Method: as §1

γH2AX foci in DLD1 cells = assay: γH2AX foci immunofluorescence staining; type: cell-based, human; conditions: 50 nM 5-FdU
Method: (§2) Cells cultured on glass coverslips were treated with 5-FdU in the presence or absence of 10 μM caspase inhibitor Q-VD-OPH (BioVision Inc). Cells were fixed in 3.7% formaldehyde for 10 minutes, blocked with PBS containing 10% FBS and 0.1% Triton X-100 for 20 minutes, washed with PBS three times, and incubated with primary anti-γH2AX antibody (Millipore, dilution: 1:150) in PBS containing 0.1% Triton X-100 at 4° C. overnight. The cells were then washed with PBS three times, incubated with secondary antibodies (Alexa Fluor 594, Life Technologies; dilution: 1:400) in PBS containing 0.1% Triton X-100 for 1 h, and washed with PBS three times. The slides were mounted with antifade solution with DAPI (Cell Signaling) and visualized on a Leica laser microscope.

[4] = test system: γH2AX foci in HEC1A cells; assay: γH2AX foci immunofluorescence staining; type: cell-based, human; conditions: 50 nM 5-FdU
Method: as §2

[5] = test system: cleaved PARP in DLD1 cells; assay: Western blot of cleaved PARP; type: cell-based, human; conditions: DLD1, 50 nM 5-FdU
Method: (§3) Western blots were performed as described in Yan et al. (Clin Cancer Res. (2007) 13:1532-39). Antibodies used were as follows: Anti-UDG (FL-313) (Santa Cruz Biotechnology), anti-Cleaved PARP (Asp214)(19F4) (Cell Signaling), and anti-α-Tubulin (Calbiochem).

[6] = test system: cleaved PARP in HEC1A cells; assay: Western blot of cleaved PARP; type: cell-based, human; conditions: HEC1A, 50 nM 5-FdU
Method: as §3

[7] = test system: cleaved PARP in HCT116 p53 WT cells; assay: Western blot of apoptotic proteins; type: cell-based, human; conditions: shSCR and shUDG, 25 nM 5-FdU 24 h
Method: (§4) Western blots were performed as previously described Yan et al., Clinical Cancer Research. 2007; 13(5):1532-9. Twenty microgram of protein was loaded on SDS-polyacrylamide gel. The following antibodies were used to detect proteins on the membrane: α-Tubulin (Calbiochem); GAPDH (Santa Cruz Biotechnology); UDG (FL-313) (Santa Cruz Biotechnology); cleaved PARP (Asp214)(19F4) (Cell Signaling); cleaved caspase 3 (Cell Signaling); p53 (FL-393) (Santa Cruz Biotechnology); and p21 (Santa Cruz Biotechnology). For quantitative RT-PCR, total RNA from cells was extracted by using RNeasy Plus Mini Kit (Qiagen). cDNA synthesis was performed by using SuperScript III First Strand Kit (Life Technologies).

[8] = test system: cleaved PARP or activated caspase 3 in HCT116 p53 KO cells; assay: Western blot of apoptotic proteins; type: cell-based, human
Method: as §4

HCT116 p53 WT cells [9] = conditions: HCT116 p53 WT, shUDG vs shSCR
Text: (§6) p53 or UDG knockdown was achieved via shRNA transduction. Lentiviral vectors LV-THM-shp53 (which also expresses a GFP reporter) or LV-Bleo-shp53 to perform p53 KD in WT HCT116 cells were obtained from Case Western Reserve University, Cleveland, Ohio Lentiviral vector targeting GFP (sh-GFP) was used as control. UDG shRNA vectors (shUDG: NM_003362.2-656s21c1, shUDG-2: NM_003362.2-758s21c1, and shUDG-3: NM_003362.2-893s21c1) were purchased from Sigma, and a scramble targeting shRNA vector (Sigma) was used as paired control. The lentiviral production and infection were performed as previously described. Cells stably infected with LV-THM-p53 were isolated by cell sorting on the basis of their GFP expression.
as §5

p53 WT cancer lines = assay: Clonogenic survival assay, panel of p53 WT lines
Text: as §6, §5

DLD1 cells [10] = assay: LC-MS/MS of uracil and 5-FU incorporated in cellular DNA; conditions: 5-FdU 100 and 200 nM 48 h
Method: Genomic DNA was extracted from cells treated with 5-FdU via phenol-chloroform mixture. 80 μg of DNA sample was dissolved in 1×UDG reaction buffer (20 mM Tris-HCl, 1 mM EDTA and 1 mM dithiothreitol, pH 8.0) and incubated with UDG enzyme (1 μL, 5 units) for 1 h at 37° C. For LC-MS/MS analysis of DNA-incorporated uracil and 5-FU, 75 μL of the enzyme reaction mixture was obtained, and uracil-1,3-^15N2 was used as the internal standard (Sigma-Aldrich). All uracil and 5-FU standards, internal standard, and QC samples were prepared in 1×UDG reaction buffer. […] Quantitation of the analytes was accomplished by a AB Sciex API 3200 triple quadrupole tandem mass spectrometer (AB Sciex), which was operated in the negative multiple-reaction-monitoring (MRM) mode with mass transitions of m/z 110.8>42.0 for uracil, m/z 112.9>43.0 for uracil-1,3-^15N2 and m/z 129.0>42.0 for 5-FU. This method has lower limits of quantitation of 2.50 ng/mL and linear calibration ranges up to 500 ng/mL for both uracil and 5-FU with a sample injection volume of 15 μL, as well as a total analysis time of 6 min.

[11] = test system: p53 mutant or deficient lines; assay: Clonogenic survival assay, panel of p53 mutant or deficient lines; conditions: for resistance compared with p53 WT cells: cell lines with p53 mutation or deficiency vs p53 WT; for effect of UDG depletion on cytotoxicity: shUDG vs shSCR, p53 mutant or deficient cells
Text: as §6, §5

Method for DLD1 colon cancer cells: UDG knockdown was performed via shRNA transduction with validated clone from Sigma-Aldrich. […] A non-targeted scramble control shRNA clone (Sigma-Aldrich) was also used. Transfection of shRNA clones was performed according to manufacturer's specifications from Lipofectamine 2000 (Invitrogen). Lentiviral particles were produced via HEK293 cells, and targeted cells were infected and selected with puromycin. The stable UDG knockdown levels were verified for q-PCR and western blot analysis.
Colonies were stained with methylene blue, and only colonies containing ≥50 cells were counted. The percentage of survival was determined relative to untreated control averaged over 3 independent experiments.

level of uracil and 5-FU in UDG depleted cells relative to shSCR-transfected cells (DLD1 cells [2]; 100 nM 5-FdU 24 h): about three times higher
released uracil and 5-FU from genomic DNA (DLD1 cells [10]; shSCR-transfected cells): Very low levels
released uracil and 5-FU from genomic DNA (DLD1 cells [10]; shUDG-transfected cells): significant increase
Structure (SMILES): O=c1[nH]c(=O)n([C@H]2C[C@H](O)[C@@H](CO)O2)cc1F [5-FdU, 5-fluorodeoxyuridine]
IC50 (H1299): 269.6 ± 0.73 nM
cell survival in shSCR-transfected cells ([1]; HEC1A shSCR, high concentrations): moderate loss of cell viability
effect of UDG depletion on drug sensitivity ([1]; HEC1A shUDG vs shSCR): highly sensitized
levels of AP sites (DLD1 cells [2]; shSCR-transfected cells): remained low
levels of AP sites (DLD1 cells [2]; shUDG-transfected cells, dose dependent): dramatic increase
cell death (Annexin V and PI positive) (HCT116 p53 KO cells; UDG depleted cells, 48 to 96 h): significantly elevated
cell death (Annexin V and PI positive) (HCT116 p53 KO cells; UDG expressing cells): significantly lower
cell death (Annexin V and PI positive) (HCT116 p53 WT cells [3]): significant cell death
γH2AX foci number and percentage of cells with over 10 foci over time (γH2AX foci in DLD1 cells; DLD1 UDG depleted): remained persistent
γH2AX foci number and percentage of cells with over 10 foci over time (γH2AX foci in DLD1 cells; DLD1 shSCR, after maximum at 12 h): gradually declined
γH2AX foci number and percentage of cells with over 10 foci over time ([4]; HEC1A UDG depleted): remained high
γH2AX foci number and percentage of cells with over 10 foci over time ([4]; HEC1A shSCR, after maximum at 48 h): reduced at 72 h and 96 h
time of 5-FdU treatment until appearance of cleaved PARP [5]: > 24 h
time of 5-FdU treatment until appearance of cleaved PARP [6]: > 96 h
expression of cleaved PARP [7]: induced at 48 h
induction of cleaved PARP or activated caspase 3 ([8]; p53 KO cells depleted of UDG, 48 h to 96 h): robustly induced
induction of cleaved PARP or activated caspase 3 ([8]; p53 KO cells expressing UDG, 25 nM 5-FdU 24 h): not detected
cell survival in shSCR-transfected cells (DLD1 colon cancer cells; DLD1 shSCR, high concentrations): moderate loss of cell viability
effect of UDG depletion on drug sensitivity (DLD1 colon cancer cells; DLD1 shUDG vs shSCR): highly sensitized
effect of UDG depletion on cytotoxicity (HCT116 p53 WT cells [9]): did not significantly affect
IC50 (p53 WT cancer lines; read-out: IC50 values, p53 WT cancer lines except A375): < 10 nM
effect of UDG depletion on cytotoxicity (p53 WT cancer lines; shUDG vs shSCR, p53 WT cell lines): did not alter the cytotoxicity
resistance compared with p53 WT cells [11]: significantly more resistant
resistance compared with p53 WT cells ([11]; listed as 5FdU): relatively more resistant
IC50 ([11]; read-out: IC50 values, p53 mutant or deficient lines): > 100 nM
effect of UDG depletion on cytotoxicity [11]: selectively sensitized
effect of UDG depletion on cytotoxicity ([11]; listed as 5FdU): overcame this resistance
